Results published in patent publication US20030069187A1, “Elastase inhibitors” (priority 2001, published 2003).
pKi: −log10 of the molar value.

Key:
elastase = conditions: other elastase inhibitors, compared with AFP; cited from earlier work
[1] = biological target: T1, porcine pancreatic elastase (PPE) (Sus scrofa, UniProt P00772); assay: Elastase inhibitory capacity assay with succinylated elastin substrate; type: biochemical; conditions: 0.029 U PPE, 200 μg succinylated elastin; for increase in elastase inhibitory capacity compared to total EDP: 37° C. 30 min, % inhibition standardized to μg protein, p<0.001
T1 construct: purchased Calbiochem, San Diego, Calif
Protocol: FIG. 1 is a bar graph depicting results from experiments in which the inhibitory capacity of each EDP isolate was evaluated in triplicate using 200 μg of succinylated elastin (Rao et al., 1997; Mathrubutham et al., 1998), 30 μg of Total EDP, […] of G-25 fractions and RP-HPLC fractions and 0.029 U PPE in 150 μl with 50 mM sodium borate pH8.5. Reactions were incubated at 37° C. for 30 minutes, then treated with 2,4,6-trinitrobenzene sufonic acid. Absorbance at A450nm was determined after 20 min at room temperature. Elastase inhibitory capacity was evaluated by comparing the activity of PPE in the presence and absence of EDP, where elastase in the absence of EDP was considered to represent 100% elastase activity. The data was standardized to protein content and is presented as % inhibition per μg of protein. […] PEP7 is VPG; PEP8 is AGIP and PEP9 is AFP.
Total EDP was fractionated on a G-25 Sephadex column equilibrated with 50 mM sodium borate pH 8.5 at a flow rate of 0.7 ml/minute. G-25 inhibitory fractions were then analyzed by reverse phase high performance liquid chromatography (RP-HPLC) using a C-18 column (Vydac, Hesperia, Calif.) with 5% acetonitrile, 0.1% triflouroacetic acid pH 2.3 as RP buffer at a flow rate of 0.5 ml/minutes and monitored at A205nm. Fractions were collected, dried, and resuspended in 50 μl water and assayed for elastase inhibitory capacity (Rao et al., 1997; Mathrabutham et al., 1998). The inhibitory capacity of G-25 and RP-HPLC EDP fractions were evaluated (Rao et al., 1997; Mathrabutham et al., 1998) using 3 μg of G-25 fraction and RP-HPLC peptide with 0.029 U PPE. Percentage inhibitory capacity was evaluated by comparing the activity of PPE in the presence and absence (100% activity) of EDP and standardized to μg protein. The inhibitor constant (Ki) was experimentally calculated (Lineweaver et al., 1936). […]

T1 sequence (P00772 27-266): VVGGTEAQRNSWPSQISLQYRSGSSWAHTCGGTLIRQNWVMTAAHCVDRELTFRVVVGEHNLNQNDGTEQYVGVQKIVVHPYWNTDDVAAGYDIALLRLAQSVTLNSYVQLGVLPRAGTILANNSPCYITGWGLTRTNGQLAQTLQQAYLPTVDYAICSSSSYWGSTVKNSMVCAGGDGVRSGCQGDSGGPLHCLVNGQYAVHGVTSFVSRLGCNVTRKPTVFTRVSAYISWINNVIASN

| increase in elastase inhibitory capacity compared to total EDP [1] | Compound | further results |
| --- | --- | --- |
| – | CC(C)C[C@H](NC(=O)N[C@H](C(=O)N[C@@H](CCC(N)=O)C(=O)N[C@@H](C)C=O)[C@@H]1CCNC(=N)N1)C(=O)O [elastatinal] | pKi (elastase): 4.30 |
| 4.3 fold | Ala-Gly-Ile-Pro (AGIP; printed: Ala-Gly-Ile-Pro) | – |
| – | VGVAPG | elastase inhibition (% inhibition per μg of protein) ([1]; FIG. 1): elastase inhibition is a characteristic that is not shared by all EDPs |
| 4.8 fold | Val-Pro-Gly [VPG] | – |
